In patent US9387221B2, “SDF-1 binding nucleic acids and the use thereof in cancer treatment” (NOXXON Pharma AG, priority 2010, dated 2016):
{PEG40k} = 40 kDa polyethylene glycol

System: Human CXCR7
Experiment: CXCR7 β-arrestin complementation assay (PathHunter), CHO cells
Assay type: cell-based
Details: 10 nM human SDF-1, 90 minutes; read-out: IC50, CXCR7 activation (β-galactosidase)
Method: Besides CXCR4, SDF-1 also binds to the chemokine receptor CXCR7. The inhibitory potential of SDF-1-binding Spiegelmer NOX-A12 towards CXCR7 was tested in a complementation assay with CHO cells stably expressing CXCR7 and β-arrestin both fused to a fragment of β-galactosidase (PathHunter™—β-arrestin assay, DiscoveRX, CA, USA). Upon SDF-1 binding β-arrestin complexed with CXCR7 and thus led to complementation and activation of the β-galactosidase which was measured with a chemiluminescence substrate.
PathHunter eXpress CHO-K1 Human CXCR7 β-arrestin cells were plated for 48 hours in OCC2 Medium and stimulated with 10 nM SDF-1 and various concentrations of SDF-1-binding Spiegelmer NOX-A12 for 90 minutes. Following stimulation, signal was detected using the PathHUnter Detection Kit and the manufacturer's recommended protocol (DiscoveRX, CA, USA).

Substance “5′-40 kDa-PEG-GCGUGGUGUGAUCUAGAUGUAUUGGCUGAUCCUAGUCAGGUACGC (5' {PEG40k}, sugars by position and backbone not given here) [NOX-A12]” has an IC50 of 5.4 nM.
